Measurements: patent US20260097047A1, “Small molecule inhibitors of the ribosome biogenesis factor NVL2” (Board of Regents, The University of Texas System, priority 2023, published 2026)

What was measured:
[1] = test system: HCT116 control and p53 KO cells; experiment: Cell death by loss in membrane permeability, HCT116 control and p53 KO cells; format: cell-based, human; settings: five-day treatment
[2] = test system: cleaved caspase-3; experiment: Cleaved caspase-3 (apoptosis), HCT116 control and p53 KO cells; format: cell-based, human
From the text: The upregulation of p53 and its effector p21 can arrest cell growth or induce cell death through apoptosis. […] Next, we addressed whether cell death was mediated by an apoptotic pathway by assaying for cleaved caspase-3, a bona fide marker of apoptosis.

[3] = molecular target: T1, mouse NVL (Mus musculus, UniProt Q9DBY8); experiment: Viability of NVL^AID/AID cells relying on ectopic mouse NVL (Ph-IAA); format: cell-based; settings: endogenous NVL degraded with Ph-IAA
T1 construct: expressed in transfected cells; host or cells: HCT116 NVL^AID/AID cells (human cells, viral infection)
T1 sequence (Q9DBY8 whole entry): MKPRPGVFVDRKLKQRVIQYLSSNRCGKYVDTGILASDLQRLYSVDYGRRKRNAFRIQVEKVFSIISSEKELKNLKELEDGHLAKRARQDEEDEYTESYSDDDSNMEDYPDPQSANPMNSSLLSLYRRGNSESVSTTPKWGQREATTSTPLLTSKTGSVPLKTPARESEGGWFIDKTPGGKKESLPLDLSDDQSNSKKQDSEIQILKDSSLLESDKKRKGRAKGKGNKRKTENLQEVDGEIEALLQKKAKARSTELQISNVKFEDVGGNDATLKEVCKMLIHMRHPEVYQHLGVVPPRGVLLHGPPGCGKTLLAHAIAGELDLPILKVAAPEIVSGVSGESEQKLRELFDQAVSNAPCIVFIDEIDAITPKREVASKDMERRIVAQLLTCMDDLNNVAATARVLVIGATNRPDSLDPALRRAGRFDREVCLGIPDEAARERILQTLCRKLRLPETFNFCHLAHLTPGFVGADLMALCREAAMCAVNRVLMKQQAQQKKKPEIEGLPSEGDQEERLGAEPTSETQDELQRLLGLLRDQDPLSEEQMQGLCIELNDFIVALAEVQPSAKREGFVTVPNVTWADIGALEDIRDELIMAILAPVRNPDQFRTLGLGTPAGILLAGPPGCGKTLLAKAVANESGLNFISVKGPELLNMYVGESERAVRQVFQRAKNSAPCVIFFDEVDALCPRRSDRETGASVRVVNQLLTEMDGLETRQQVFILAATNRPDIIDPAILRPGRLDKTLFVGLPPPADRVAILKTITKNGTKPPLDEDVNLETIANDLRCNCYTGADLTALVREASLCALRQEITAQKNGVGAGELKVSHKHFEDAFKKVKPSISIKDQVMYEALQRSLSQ
From the text: Next, we investigated whether inhibitors of NVL could inhibit the growth of cell line derived xenografts tumors in mice, and whether systemic inhibition of NVL leads to specific toxicities. […] To test the potency of MM927 against mouse NVL within the same cell type, we ectopically expressed either human or mouse NVL in NVL^AID/AID cells. Treatment with Ph-IAA degrades the endogenous protein so that the cells must rely solely on ectopically expressed NVL. In the mock infected cells, degrading NVL^AID/AID by the addition of Ph-IAA reduced cell viability as expected, and the viability was completely rescued by expression of either ectopic mouse or human NVL.

[4] = Drug levels in plasma and tumor at end of efficacy study (NSG mice); format: in vivo, mouse; settings: 3 hours after the last treatment dose, 35 mg/kg IP twice a day for 21 days
Method: Having established the kinetics of MM927 mediated NVL inhibition in xenograft tumors, we administered 35 mg/kg MM927 IP twice a day for 21 days to mice harboring tumors derived from either HCT116 NVL wild type or NVL^R403W cells. […] Taken together, we concluded that the potent, and bioavailable analog MM927 reduces tumor growth in mouse xenografts by inhibiting NVL without toxicity.
Pharmacokinetic studies were performed by dosing 6-7 week old CD-1 female mice with analog MM927 formulated as 10% DMSO/10% Kolliphor EL/10% Solutal/70% D5W via the intraperitoneal route. […] The resulting supernatants were evaluated by LC-MS/MS using a Sciex (Framingham, MA) 4500 Triple Quad coupled to a Shimadzu (Columbia, MD) Prominence LC. Briefly, MM927 was detected in multiple reaction monitoring mode (MRM) using the (m+1) transition 488.059/176.1. […] The concentrations of drug in each time-point sample were quantified using Analyst software (Sciex). […] The limit of quantitation (LOQ) was defined as the lowest concentration at which back calculation yielded a concentration within 20% of theoretical and which was above the LOD. Cmax and AUC values were calculated using the noncompartmental analysis tool of Phoenix WinNonLin (Certara/Pharsight, Sunnyvale, CA). […]

Row | Compound | cell death in p53 KO versus control cells [1] | cleaved caspase-3 [2] | IC50 [3] [nM] | level in plasma and tumor [4]
1 | COCCN1C(=O)c2ccccc2Sc2cc(NC(=O)c3ccoc3)ccc21 [MM017] | substantially lower in p53 KO cells | substantially reduced in p53 KO cells | – | –
2 | CC#CCN1C(=O)c2ccc(F)cc2Sc2cc(NC(=O)c3ccc4oc(=O)n(C)c4c3)ccc21 [MM927, N-(10-(But-2-yn-1-yl)-3-fluoro-11-oxo-10,11-dihydrodibenzo[b,f][1,4]thiazepin-7-yl)-3-methyl-2-oxo-2,3-dihydrobenzo[d]oxazole-5-carboxamide] | – | – | 207 | micromolar levels
